Literature values in article PMC7905424 (Biochemistry. Biokhimiia, 2021).
Where two headings read alike, the source gives them in different places.

Columns and labels:
[1] = system: pro-inflammatory cytokine IL-6; conditions: COVID-19 patients

Substance | Kd (SARS-CoV-2 S protein; read-out: Kd for ACE2, lower end of literature range) | Kd (SARS-CoV-2 S protein; read-out: Kd for ACE2, upper end of literature range) | content of the pro-inflammatory cytokine IL-6 [1]
ACE2 | 1.2 nM | 95 nM | –
low-molecular-weight heparin | – | – | pronounced decrease
